{
  "source": "patent US6423691B1",
  "about": "“Pharmaceutical composition for prophylaxis and therapy of diseases associated with ocular fundus tissue cytography” (Senju Pharmaceutical Co., Ltd., priority 1998, dated 2002)",
  "key": {"[1]": {"test_system": "retinal neurons (ganglion cells) and inner nuclear layer cells", "experiment": "Effect on rat ocular fundus tissue cytopathy (central retinal artery occlusion/reperfusion)", "format": "in vivo", "conditions": "male SD rats, 75 min central retinal artery occlusion, 100 mg/kg i.p. 15 min before occlusion, immediately after reperfusion, then once daily; specimens 5 days after reperfusion", "source_text": "FIG. 1 is a diagrammatic representation of the effect on injury of rat retinal ganglion cells. The ordinate represents the number of ganglion cells. In the diagram, a) denotes a significant difference (p<0.01) from the normal group by Student's t-test; b) denotes a significant difference (p<0.01) from the control group by Student's t-test.\nFIG. 2 is a diagrammatic representation of the effect on injury of the rat retinal inner nuclear layer cells. The ordinate represents the number of inner nuclear layer cells. In the diagram, a) denotes a significant difference (p<0.01) from the normal group by Student's t-test; b) denotes a significant difference (p<0.01) from the control group by Student's t-test.\nEffect on Rat Ocular Fundus Tissue Cytopathy Method:\nUsing male SD rats (b. wt. 150 g), the central retinal artery was occluded with an aneurysm clip under anesthesia with 5 w/v % ketamine HCl/2 w/v % xylazine HCl (3:1, 0.5 ml, i.p.) to arrest the blood flow for 75 minutes. In the normal group, the central retinal artery was exposed but ischemia was not introduced. Tissue specimens were prepared 5 days after reperfusion. For use as a tissue specimen, the enucleated eyeball was fixed in 4% formaldehyde and embedded in paraffin in a routine manner. Then, thin sections (3 μm thick) were prepared by transverse slicing at right angles with the retinal surface including the optic disc and stained with hematoxylin-eosin. Under the light microscope, the retinal neurons (ganglion cells) and inner nuclear layer cells were counted per 0.25 mm span of the retinal section at a predetermined distance (1-2 mm) from the optic disc. As the test drug, a parenteral suspention prepared as in Example 3 was administered intraperitoneally in a dose of 100 mg, as Compound 1, per kg body weight 15 minutes before arterial occlusion, immediately after reperfusion, and thereafter once daily (Compound 1 administration group). The control and normal groups were similarly given the vehicle used in Example 3. In the positive control group, Cbz-Val-Phe-H [S.C. Hong et al., Stroke, 25 (3), 663-669, 1994], 100 mg/kg, was similarly administered (MDL administration group)."}, "calpain": {"test_system": "calpain", "experiment": "Effect on rat enucleated retina cytopathy under hypoxia (spectrin cleavage, SDS electrophoresis)", "format": "cell-based", "conditions": "rat retina incubated under hypoxia in glucose-free RPMI 1640, 3 and 6 hours, 100 μM", "protocol": "FIG. 3(a) and FIG. 3(b) are SDS electrophoretic images showing the cleavage product of endocellular spectrin obtained upon homogenation of retina tissues detected after incubation of rat retina tissues under hypoxia, wherein FIG. 3(a) and FIG. 3(b) show SDS electrophoretic images after incubation for 3 hours and 6 hours, respectively.\nEffect on Rat Enucleated Retina Cytopathy Under Hypoxia Method:\nThe ocular fundus tissue (retina) of male SD rats (b. wt. 150 g) was removed and incubated under hypoxia in RPMI 1640 medium (manufactured by (Gibco) without glucose. The ocular fundus tissue was homogenized 3 and 6 hours later, and the cleavage product of endocellular spectrin was isolated by SDS electrophoresis and detected using homophil prepared by the method of Saido et. al. [The Journal of Biological Chemistry, 268, 25239-25243 (1993)]. As the test compounds, Compound 1 and MDL were dissolved in ethanol to a concentration of 20 mM and added to the culture medium to a concentration of 100 μM (Compound 1 administration group and MDL administration group). As a control, the ocular fundus tissue of male SD rats (b. wt. 150 g) was incubated in the same manner in the presence of oxygen in RPMI 1640 medium containing glucose."}},
  "note": "Peptide text beside a SMILES is read from it. * marks the point of attachment. Cbz = O=C(OCc1ccccc1)*",
  "data": [
    {"smiles": "CC(C)C[C@@H](C=O)NC(=O)[C@@H](NS(=O)(=O)c1ccc(F)cc1)C(C)C", "note": "[Compound 1, N-(4-fluorophenylsulfonyl)-L-valyl-L-leucinal]", "values": [
      {"measurement": "inhibition of the decrease in ganglion cell count caused by arterial occlusion", "setting": "[1]", "value": "significantly inhibited"},
      {"measurement": "inhibition of the decrease in inner nuclear layer cell count caused by arterial occlusion", "setting": "[1]", "value": "significantly inhibited"},
      {"measurement": "145 kDa band (cleavage product of spectrin)", "setting": "calpain", "value": "not detected"},
      {"measurement": "150 kDa band due to the digestion of spectrin", "setting": "calpain", "value": "somewhat detected"}
    ]},
    {"smiles": "CC(C)[C@H](NC(=O)OCc1ccccc1)C(=O)N[C@H](C=O)Cc1ccccc1", "note": "[MDL, Cbz-Val-Phe-H] (Cbz-Val-Phe-aldehyde)", "values": [
      {"measurement": "inhibition of the decrease in ganglion cell count caused by arterial occlusion", "setting": "[1]", "value": "slight"},
      {"measurement": "inhibition of the decrease in inner nuclear layer cell count caused by arterial occlusion", "setting": "[1]", "value": "slight"},
      {"measurement": "145 kDa band (cleavage product of spectrin)", "setting": "calpain", "value": "not detected"},
      {"measurement": "150 kDa band due to the digestion of spectrin", "setting": "calpain", "value": "somewhat detected"}
    ]}
  ]
}
